Data on two compounds can be found in US20100063041A1, “NOVEL PHENYLPROPIONIC ACID DERIVATIVES AS PEROXISOME PROLIFERATOR-ACTIVATED GAMMA RECEPTOR MODULATORS, METHOD OF THE SAME, AND PHARMACEUTICAL COMPOSITION COMPRISING THE SAME” (priority 2007, published 2010).

Assay [1] deals with T1, PPAR-γ and Trap220 (Homo sapiens, UniProt P37231).
T1 construct: expressed in transfected cells; host or cells: CHO-K1 (CCL-61, ATCC)
T1 sequence (P37231 238-503 limits assumed): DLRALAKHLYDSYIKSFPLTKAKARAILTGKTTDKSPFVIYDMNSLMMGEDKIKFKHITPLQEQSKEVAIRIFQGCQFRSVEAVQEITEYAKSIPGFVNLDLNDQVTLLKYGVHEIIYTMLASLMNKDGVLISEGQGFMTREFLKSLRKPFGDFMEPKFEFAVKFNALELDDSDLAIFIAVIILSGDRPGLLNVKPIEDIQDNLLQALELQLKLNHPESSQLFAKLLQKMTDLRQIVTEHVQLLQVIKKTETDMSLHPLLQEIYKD
Put plainly: binding capacity with Trap220 (mammalian two-hybrid assay) in CHO-K1 cells. As to conditions: compared to the positive control drug rosiglitazone, FIG. 1. The class given is cell-based. The procedure:
Following induction of transient intracellular expression of PPAR-γ and Trap220, the binding capacity of the inventive compounds to a cofactor Trap220 after activation of PPAR-γ by the action of the inventive compounds was evaluated (mammalian two-hybrid assay).
For this purpose, a […] ovary cell line CHO-K1 (CCL-61, ATCC) was used as a test cell line. DNA constructs used in this assay were an expression vector pVP16 (Clontech) constructed to express a fusion of a human PPAR-γ2 ligand-binding domain with an activation domain of the […], and an expression vector pM (Clontech) constructed to express a fusion of human Trap220 with the GAL4 DNA-binding domain. Rosiglitazone maleate (Alcon Biosciences Private Limited), which is clinically used as a PPAR-γ agonist, was employed as a control drug.
The CHO-K1 cells were transiently transfected with two DNA constructs expressing the chimeric receptors and DNA constructs comprising 5 copies of the GAL4 DNA-binding domain and capable of inducing expression of firefly luciferase or Renilla luciferase using a Lipofectamine Plus reagent (Invitrogen, USA). Subsequent processes were carried out in the same manner as in the transactivation assay. The experimental results were expressed as an increase of the responsiveness vs. the negative control group with no addition of the drug.

Assay [2] relates to diabetic male mice (db/db mice). Put plainly: blood glucose-lowering effects in mice with hyperglycemic diabetes. In kind it is in vivo. As to conditions: for % Inhibition vs. Control / Blood glucose D5: oral once a day for 5 days. The procedure: Effects of PPAR compounds on a blood glucose level were evaluated in 7-week-old diabetic male mice (db/db mice). Blood was collected from caudal veins of the diabetic animals to which the drug was administered once a day for 5 consecutive days, and the blood glucose level was then measured with a blood glucose test meter (ACCU CHEK Active®).

Assay [3] has as its system Trap220. The conditions noted are these: cited from earlier work.

In the case of `CCO[C@@H](Cc1ccc(OCc2sc(-c3ccc(-c4cc(C)no4)cc3)cc2C)cc1)C(=O)[O-].[Na+]` [Example 43, sodium (S)-2-ethoxy-3-(4-((3-methyl-5-(4-(3-methylisoxazol-5-yl)phenyl)thiophen-2-yl)methoxy)phenyl)propanoate], in assay [1], the “responsiveness (binding capacity with Trap220)” value is on record as “reduced responsiveness”.

In the case of `O=S(=O)(Nc1cc(Cl)c(Oc2cnc3ccccc3c2)c(Cl)c1)c1ccc(Cl)cc1Cl` [INT-131, reference compound], the “% Inhibition vs. Control” value in assay [2] (1 mg/kg) came to 8%; in assay [2] (3 mg/kg) it was 25%; in assay [2] (10 mg/kg), 38%. The “Blood glucose D5” value in assay [2] (1 mg/kg) is listed as 350 ± 31 mg/dL; in assay [2] (3 mg/kg) it was 286 ± 34 mg/dL; in assay [2] (10 mg/kg), 237 ± 19 mg/dL. Moreover, the “Blood glucose D0” value in assay [2] (oral, 1 mg/kg) is on record as 381 ± 30 mg/dL; in assay [2] (oral, 3 mg/kg) it was 382 ± 31 mg/dL; in assay [2] (oral, 10 mg/kg) it was 382 ± 28 mg/dL. Moreover, in assay [2] (oral, blood glucose), the ED30 was found to be 4 mg/kg. Besides, the “binding capacity for Trap220” value in assay [3] is on record as “attenuated binding capacity”.
